Measurements reported in ChEMBL document CHEMBL1201862, “PubChem BioAssay data set” (2004).
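Assay format: 96-well plates, 48-hour exposure. GI50 marks 50% less growth.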 Activity calls are given as the source filed them. Cut-off read from the data, not from the text of the source: active = GI50 up to about 1.1 µM and inactive = higher.

Legend:
Assay in all cases: DTP human tumour cell line panel, 48 h
M19-MEL = system: M19-MEL
SR = system: SR
K562 = system: K562
OVCAR-5 = system: OVCAR-5
DLD-1 = system: DLD-1
ACHN = system: ACHN
COLO 205 = system: COLO 205
UACC-257 = system: UACC-257
DMS-273 = system: DMS-273
KM12 = system: KM12
LOX IMVI = system: LOX IMVI
HOP-62 = system: HOP-62
DMS-114 = system: DMS-114
Malme-3M = system: Malme-3M
SNB-78 = system: SNB-78
SK-MEL-2 = system: SK-MEL-2

Measured: GI50

O=[N+]([O-])c1cc(/C=N\NS(=O)(=O)c2ccc(Cl)cc2)c(O)c([N+](=O)[O-])c1
inactive: M19-MEL 48.3 µM | SR 21 µM | K562 31.1 µM | OVCAR-5 > 100 µM | DLD-1 72.8 µM | ACHN 49.8 µM | COLO 205 16.1 µM | UACC-257 66.5 µM | DMS-273 26.5 µM | KM12 27.5 µM | LOX IMVI 37.8 µM | HOP-62 47.3 µM | DMS-114 31.9 µM | Malme-3M 36.6 µM | SNB-78 38.1 µM | SK-MEL-2 31.1 µM

C[N+](C)(C)CC1CCCC(C[N+](C)(C)C)C1O (centres undefined)
inactive: M19-MEL > 100 µM | SR > 100 µM | K562 > 100 µM | OVCAR-5 > 100 µM | DLD-1 > 100 µM | ACHN > 100 µM | COLO 205 > 100 µM | UACC-257 > 100 µM | DMS-273 > 100 µM | KM12 > 100 µM | LOX IMVI > 100 µM | HOP-62 > 100 µM | DMS-114 > 100 µM | Malme-3M > 100 µM | SNB-78 > 100 µM | SK-MEL-2 > 100 µM

O=C1C(Cl)=C(Cl)C(=O)N1c1ccccc1Cl
inactive: M19-MEL > 100 µM | SR 14.7 µM | K562 28.9 µM | OVCAR-5 > 100 µM | DLD-1 > 52.2 µM | ACHN > 100 µM | COLO 205 > 63.7 µM | UACC-257 > 100 µM | DMS-273 > 100 µM | KM12 > 100 µM | LOX IMVI > 100 µM | HOP-62 > 100 µM | DMS-114 > 95.1 µM | Malme-3M > 52.5 µM | SNB-78 > 100 µM | SK-MEL-2 > 100 µM

COC(=O)N/N=c1\cc(C(=O)Nc2ccc(C)c(C)c2)oc2cc(O)ccc12
inactive: M19-MEL > 100 µM | SR > 100 µM | K562 > 100 µM | OVCAR-5 > 100 µM | DLD-1 > 100 µM | ACHN > 100 µM | COLO 205 > 100 µM | UACC-257 > 100 µM | DMS-273 > 100 µM | KM12 > 100 µM | LOX IMVI > 100 µM | HOP-62 > 100 µM | DMS-114 > 100 µM | Malme-3M > 100 µM | SNB-78 > 100 µM | SK-MEL-2 > 100 µM
